Series [1] concerns the target Sodium-dependent serotonin transporter (Homo sapiens, UniProt P31645). Kind of series: Displacement of [3H]citalopram from human recombinant SERT scintillation proximity assay.
Series [2] concerns the target Sodium-dependent noradrenaline transporter (Homo sapiens, UniProt P23975). Kind of series: Displacement of [3H]nisoxetine from human recombinant NET by scintillation proximity assay.
The target of series [3] is Sodium-dependent dopamine transporter (Homo sapiens, UniProt Q01959). As to the kind of experiment: Displacement of [3H]WIN-35428 from human recombinant DAT by scintillation proximity assay. In general terms: In a radioligand displacement assay an active substance lowers the binding of a labelled ligand.
The test system of series [4] is Liver microsomes. As to the kind of experiment: Intrinsic clearance in human liver microsomes assessed per mg of protein at 0.5 uM for 30 mins by HPLC-MS/MS analysis in presence of NADPH. Format: ADME, Microsome. As to conditions: 0.5 h. In general terms: Microsomes from liver hold many membrane-bound enzymes, among them those of drug oxidation.
The subject of series [5] is Liver microsomes. Kind of series: Intrinsic clearance in rat liver microsomes assessed per mg of protein at 0.5 uM for 30 mins by HPLC-MS/MS analysis in presence of NADPH. Format: ADME, Microsome. The conditions noted are these: 0.5 h.
For a further series, the target named is Cytochrome P450 2C19 (Homo sapiens, UniProt P33261). As to the kind of experiment: Inhibition of human CYP2C19 incubated for 10 mins before substrate addition by fluorescence assay.
The next series has as its target T1, Cytochrome P450 1A2 (Homo sapiens, UniProt P05177).
T1 sequence (P05177 whole entry): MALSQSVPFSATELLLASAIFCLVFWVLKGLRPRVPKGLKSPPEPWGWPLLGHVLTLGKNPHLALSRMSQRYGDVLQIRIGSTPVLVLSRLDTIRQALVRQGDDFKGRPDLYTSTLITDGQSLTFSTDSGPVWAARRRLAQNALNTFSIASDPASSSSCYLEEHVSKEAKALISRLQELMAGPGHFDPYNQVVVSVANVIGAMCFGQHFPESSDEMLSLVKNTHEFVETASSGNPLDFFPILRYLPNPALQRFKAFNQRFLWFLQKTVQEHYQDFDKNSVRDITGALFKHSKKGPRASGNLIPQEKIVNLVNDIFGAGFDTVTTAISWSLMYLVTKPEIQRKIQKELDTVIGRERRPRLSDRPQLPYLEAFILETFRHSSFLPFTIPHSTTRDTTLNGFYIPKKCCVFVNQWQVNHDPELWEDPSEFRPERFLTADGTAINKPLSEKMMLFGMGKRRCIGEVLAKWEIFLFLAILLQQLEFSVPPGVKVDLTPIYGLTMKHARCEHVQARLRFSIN
Kind of series: Inhibition of human CYP1A2 incubated for 10 mins before substrate addition by fluorescence assay.

In another series the target is Cytochrome P450 2D6 (Homo sapiens, UniProt P10635). Kind of series: Inhibition of human CYP2D6 incubated for 10 mins before substrate addition by fluorescence assay.
In a further series the target is Cytochrome P450 3A4 (Homo sapiens, UniProt P08684). As to the kind of experiment: Inhibition of human CYP3A4 incubated for 10 mins before substrate addition by fluorescence assay.
For the next series, the target named is Cytochrome P450 2C9 (Homo sapiens, UniProt P11712). Kind of series: Inhibition of human CYP2C9 incubated for 10 mins before substrate addition by fluorescence assay.

pIC50, pKi: −log10 of the molar value.

Sequence of Cytochrome P450 3A4 (P08684 whole entry): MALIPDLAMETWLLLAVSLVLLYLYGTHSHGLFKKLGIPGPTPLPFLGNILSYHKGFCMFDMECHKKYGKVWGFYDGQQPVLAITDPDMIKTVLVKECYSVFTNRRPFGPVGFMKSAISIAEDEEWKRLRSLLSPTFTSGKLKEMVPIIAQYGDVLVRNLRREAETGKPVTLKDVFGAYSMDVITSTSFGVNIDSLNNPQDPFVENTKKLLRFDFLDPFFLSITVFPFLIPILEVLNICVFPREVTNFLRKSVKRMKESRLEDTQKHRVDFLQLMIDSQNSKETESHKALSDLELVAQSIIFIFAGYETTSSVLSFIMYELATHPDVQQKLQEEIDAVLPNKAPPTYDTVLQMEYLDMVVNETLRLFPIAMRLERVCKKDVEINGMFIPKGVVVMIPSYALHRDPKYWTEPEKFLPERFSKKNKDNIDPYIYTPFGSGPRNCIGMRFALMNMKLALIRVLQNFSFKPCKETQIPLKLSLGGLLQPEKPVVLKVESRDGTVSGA
Sequence of Sodium-dependent serotonin transporter (P31645 whole entry): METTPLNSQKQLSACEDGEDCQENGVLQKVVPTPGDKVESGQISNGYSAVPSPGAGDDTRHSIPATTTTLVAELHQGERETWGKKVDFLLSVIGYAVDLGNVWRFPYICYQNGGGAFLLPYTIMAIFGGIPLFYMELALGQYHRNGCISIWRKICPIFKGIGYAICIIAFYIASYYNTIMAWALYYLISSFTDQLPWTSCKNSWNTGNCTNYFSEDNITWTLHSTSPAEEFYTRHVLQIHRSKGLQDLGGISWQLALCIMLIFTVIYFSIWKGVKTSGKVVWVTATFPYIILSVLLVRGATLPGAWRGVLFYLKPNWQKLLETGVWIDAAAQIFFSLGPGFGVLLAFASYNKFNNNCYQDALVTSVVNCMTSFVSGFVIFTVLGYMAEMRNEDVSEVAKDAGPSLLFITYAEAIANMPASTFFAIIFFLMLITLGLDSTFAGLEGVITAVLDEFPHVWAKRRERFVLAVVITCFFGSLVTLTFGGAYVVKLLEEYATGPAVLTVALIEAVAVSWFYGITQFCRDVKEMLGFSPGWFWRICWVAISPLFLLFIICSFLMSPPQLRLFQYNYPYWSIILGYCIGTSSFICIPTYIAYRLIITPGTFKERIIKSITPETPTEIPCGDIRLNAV
Sequence of Cytochrome P450 2C19 (P33261 whole entry): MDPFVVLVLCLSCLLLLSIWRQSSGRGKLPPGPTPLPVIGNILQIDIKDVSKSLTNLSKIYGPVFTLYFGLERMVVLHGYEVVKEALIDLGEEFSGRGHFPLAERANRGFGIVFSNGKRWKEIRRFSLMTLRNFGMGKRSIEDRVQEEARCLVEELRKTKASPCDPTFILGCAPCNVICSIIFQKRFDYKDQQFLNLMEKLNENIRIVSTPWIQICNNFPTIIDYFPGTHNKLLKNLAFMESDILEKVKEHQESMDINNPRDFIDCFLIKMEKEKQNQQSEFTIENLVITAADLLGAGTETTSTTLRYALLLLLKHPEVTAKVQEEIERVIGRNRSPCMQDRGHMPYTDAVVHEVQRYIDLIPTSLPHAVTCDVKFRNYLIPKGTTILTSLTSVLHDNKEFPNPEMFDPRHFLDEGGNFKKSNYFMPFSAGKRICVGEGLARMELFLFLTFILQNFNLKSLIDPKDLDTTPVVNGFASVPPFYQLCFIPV
Sequence of Cytochrome P450 2C9 (P11712 whole entry): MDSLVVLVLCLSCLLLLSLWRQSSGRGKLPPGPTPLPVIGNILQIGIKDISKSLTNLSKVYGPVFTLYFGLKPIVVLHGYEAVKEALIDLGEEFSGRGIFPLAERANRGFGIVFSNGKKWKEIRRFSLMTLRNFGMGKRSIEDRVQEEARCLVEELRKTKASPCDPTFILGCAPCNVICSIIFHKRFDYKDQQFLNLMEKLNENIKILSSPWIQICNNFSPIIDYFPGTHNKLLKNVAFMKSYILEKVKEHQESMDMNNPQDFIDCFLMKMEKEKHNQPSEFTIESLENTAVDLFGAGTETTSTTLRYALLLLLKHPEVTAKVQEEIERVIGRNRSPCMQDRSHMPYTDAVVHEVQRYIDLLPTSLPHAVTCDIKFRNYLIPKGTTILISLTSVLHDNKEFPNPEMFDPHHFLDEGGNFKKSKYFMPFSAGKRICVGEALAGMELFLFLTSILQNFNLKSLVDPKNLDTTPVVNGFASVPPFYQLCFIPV
Sequence of Sodium-dependent dopamine transporter (Q01959 whole entry): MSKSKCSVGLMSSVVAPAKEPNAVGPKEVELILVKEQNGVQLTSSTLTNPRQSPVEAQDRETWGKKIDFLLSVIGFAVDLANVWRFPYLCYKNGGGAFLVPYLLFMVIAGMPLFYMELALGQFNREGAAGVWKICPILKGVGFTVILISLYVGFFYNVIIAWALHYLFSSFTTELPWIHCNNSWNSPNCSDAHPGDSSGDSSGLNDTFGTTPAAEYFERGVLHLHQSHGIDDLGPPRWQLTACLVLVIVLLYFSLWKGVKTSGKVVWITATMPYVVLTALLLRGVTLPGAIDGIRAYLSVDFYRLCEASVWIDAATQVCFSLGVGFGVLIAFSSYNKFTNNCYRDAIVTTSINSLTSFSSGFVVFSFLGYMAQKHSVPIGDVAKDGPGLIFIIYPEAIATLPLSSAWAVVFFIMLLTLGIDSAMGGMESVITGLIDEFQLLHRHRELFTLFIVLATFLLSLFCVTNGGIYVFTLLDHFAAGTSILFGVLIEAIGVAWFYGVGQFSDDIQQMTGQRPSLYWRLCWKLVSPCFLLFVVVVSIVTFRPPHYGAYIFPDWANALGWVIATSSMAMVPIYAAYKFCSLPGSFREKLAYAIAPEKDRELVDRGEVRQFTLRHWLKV
Sequence of Cytochrome P450 2D6 (P10635 whole entry): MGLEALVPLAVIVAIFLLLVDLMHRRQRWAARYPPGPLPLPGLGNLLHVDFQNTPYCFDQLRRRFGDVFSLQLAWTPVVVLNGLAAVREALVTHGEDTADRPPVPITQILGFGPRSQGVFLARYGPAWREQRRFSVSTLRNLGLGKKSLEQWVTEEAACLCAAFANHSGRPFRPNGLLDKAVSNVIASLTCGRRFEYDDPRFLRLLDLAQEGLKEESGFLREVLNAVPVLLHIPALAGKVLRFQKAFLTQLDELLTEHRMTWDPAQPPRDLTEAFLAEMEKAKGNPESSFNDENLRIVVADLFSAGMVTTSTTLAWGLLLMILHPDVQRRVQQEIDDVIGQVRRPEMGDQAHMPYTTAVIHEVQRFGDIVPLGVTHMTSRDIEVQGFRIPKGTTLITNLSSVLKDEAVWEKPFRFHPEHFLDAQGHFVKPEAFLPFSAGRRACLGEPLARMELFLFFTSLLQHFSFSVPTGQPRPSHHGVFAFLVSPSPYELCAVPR
Sequence of Sodium-dependent noradrenaline transporter (P23975 whole entry): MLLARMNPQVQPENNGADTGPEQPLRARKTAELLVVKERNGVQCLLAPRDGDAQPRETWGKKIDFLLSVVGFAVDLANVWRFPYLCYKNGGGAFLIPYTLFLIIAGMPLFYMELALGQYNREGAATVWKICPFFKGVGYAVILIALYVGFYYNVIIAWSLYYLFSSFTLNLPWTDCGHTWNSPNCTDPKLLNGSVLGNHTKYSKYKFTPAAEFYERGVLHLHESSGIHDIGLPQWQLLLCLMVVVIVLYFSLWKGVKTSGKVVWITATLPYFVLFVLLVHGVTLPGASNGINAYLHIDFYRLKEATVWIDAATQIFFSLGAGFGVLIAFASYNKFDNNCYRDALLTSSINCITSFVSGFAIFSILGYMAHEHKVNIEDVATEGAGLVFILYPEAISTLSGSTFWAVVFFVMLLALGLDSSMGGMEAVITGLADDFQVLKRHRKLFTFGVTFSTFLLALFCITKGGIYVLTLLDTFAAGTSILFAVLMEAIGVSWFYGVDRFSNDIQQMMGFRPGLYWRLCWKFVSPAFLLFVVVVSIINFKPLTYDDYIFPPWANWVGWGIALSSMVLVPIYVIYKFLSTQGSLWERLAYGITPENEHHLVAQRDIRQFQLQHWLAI

On to `CC(C)c1nnn(C[C@@]23CNCC[C@]2(c2ccc(Cl)c(Cl)c2)C3)n1` (racemic), for which the figures for the pKi in [1], in [2] and in series [3] were 9.10, 6.40 and 7.60, respectively.

With `Cc1nc(C)n(C[C@@]23CNCC[C@]2(c2ccc(Cl)c(Cl)c2)C3)n1` (racemic), the figures for the negative logarithm of the Ki (pKi) in [1], in series [2] and in series [3] were 8.50, 7.40 and 7.60, respectively.

In the case of `Cc1cc(C)n(C[C@@]23CNCC[C@]2(c2ccc(Cl)c(Cl)c2)C3)c1` (racemic), the pKi (as a rule, the negative decadic logarithm of the Ki, by convention in mol/L) is 8.70 in series [1], 7.70 in series [2] and 8.10 in [3].

Consider `Cc1nc(C)n(CC23CNCC[C@]2(c2ccc(Cl)c(Cl)c2)C3)n1` (stereo in doubt; 38), for which the values for the pKi in series [1], in [2] and in [3] were 7.40, 5.80 and 6.70, respectively.

As to `Cc1cnn(C[C@@]23CNCC[C@]2(c2ccc(Cl)c(Cl)c2)C3)c1` (racemic), the pKi in [1] is 9.10; in [2], 7.10; in [3], 6.90.

For the compound `N#Cc1ccnn1C[C@@]12CNCC[C@]1(c1ccc(Cl)c(Cl)c1)C2` (racemic), the pKi is 8.30 in series [1], 7.50 in series [2] and 7.70 in [3].

As for `Cc1ccnn1CC12CNCC[C@]1(c1ccc(Cl)c(Cl)c1)C2` (single isomer, unassigned; enantiomer 2), the CL in the series on Liver microsomes [4] is 2.5 mL/min/g; in the series on Liver microsomes [5], 2.6 mL/min/g. In addition, the pKi was 9.10 in series [1], 8.80 in [2] and 8.50 in [3]. Besides, the pIC50 on Cytochrome P450 2C19, at Cytochrome P450 1A2, against Cytochrome P450 2D6, at Cytochrome P450 3A4 and against Cytochrome P450 2C9 was less than 5.00 in each case.

Turning to `N#Cc1cccn1C[C@@]12CNCC[C@]1(c1ccc(Cl)c(Cl)c1)C2` (racemic), the results for the pKi in series [1], in [2] and in series [3] were 8.60, 7.40 and 7.90, respectively.

For the compound `Cc1cc(C)n(C[C@@]23CNCC[C@]2(c2ccc(Cl)c(Cl)c2)C3)n1` (racemic), the pKi in [1] is 9.40; in series [2], 8.80; in series [3], 8.20.

For `Cc1cc(C)n(CC23CNCC[C@]2(c2ccc(Cl)c(Cl)c2)C3)n1` (single isomer, unassigned; enantiomer 1), the values for the pKi in [1], in [2] and in series [3] were 7.80, 6.30 and 6.80, respectively.

Consider `Cc1csc(C23CNCC[C@]2(c2ccc(Cl)c(Cl)c2)C3)n1` (single isomer, unassigned; enantiomer 1), for which the CL with Liver microsomes [4] came out at 2.6 mL/min/g; in the series with Liver microsomes [5], 5.4 mL/min/g. The values for the pKi in [1], in series [2] and in series [3] were 9.40, 9.40 and 9.70, respectively. The pIC50 against Cytochrome P450 2C19, at Cytochrome P450 1A2, on Cytochrome P450 2D6, at Cytochrome P450 3A4 and on Cytochrome P450 2C9 was less than 5.22 throughout.

In the case of `Cc1cnc([C@@]23CNCC[C@]2(c2ccc(Cl)c(Cl)c2)C3)o1` (racemic), the values for the pKi in series [1], in series [2] and in [3] were 8.20, 8.20 and 9.00, respectively.

As to `Clc1ccc([C@]23CCNCC2(Cn2cc4ccccc4n2)C3)cc1Cl` (stereo not given in full), the pKi in series [1] is 9.70; in [2], 7.30; in [3] it was 8.40.

Consider `Cc1csc([C@@]23CNCC[C@]2(c2ccc(Cl)c(Cl)c2)C3)n1` (racemic), for which the pKi in series [1] was 9.30; in series [2], 9.40; in series [3] it was 9.80.

Turning to `FC(F)(F)c1ccn(C[C@@]23CNCC[C@]2(c2ccc(Cl)c(Cl)c2)C3)n1` (racemic), the pKi was 8.70 in series [1], 6.80 in series [2] and 7.60 in series [3].

With `Cc1csc(C[C@@]23CNCC[C@]2(c2ccc(Cl)c(Cl)c2)C3)n1` (racemic), the pKi was 10.00 in series [1], 9.20 in series [2] and 8.20 in [3].

With `Clc1ccc([C@]23CCNC[C@@]2(Cn2cccc2)C3)cc1Cl` (racemic), the pKi in [1] is 9.40; in series [2], 8.00; in series [3] it was 7.80.

Take `Clc1ccc([C@]23CCNCC2(Cn2ncc4ccccc42)C3)cc1Cl` (stereo not given in full): the results for the pKi in series [1], in series [2] and in series [3] were 9.60, 7.30 and 7.80, respectively.

On to `Cc1cc([C@@]23CNCC[C@]2(c2ccc(Cl)c(Cl)c2)C3)no1` (racemic), for which the pKi in series [1] was 8.10; in [2], 7.40; in series [3], 8.70.

For `Cc1coc(C[C@@]23CNCC[C@]2(c2ccc(Cl)c(Cl)c2)C3)n1` (racemic), the figures for the pKi in [1], in [2] and in [3] were 8.70, 7.50 and 7.20, respectively.

For the compound `Cc1csc(C23CNCC[C@]2(c2ccc(Cl)c(Cl)c2)C3)n1` (stereo in doubt; 7), the pKi is 7.80 in series [1], 7.50 in series [2] and 7.70 in series [3].

Regarding `Cc1ccn(CC23CNCC[C@]2(c2ccc(Cl)c(Cl)c2)C3)c1` (stereo not given in full), the pKi in [1] was 9.30; in series [2], 7.40; in [3] it was 7.50.

On to `N#Cc1ccn(CC23CNCC[C@]2(c2ccc(Cl)c(Cl)c2)C3)c1` (single isomer, unassigned; enantiomer 1), for which the pKi in series [1] is 9.20; in series [2], 7.50; in series [3] it was 7.90.

Regarding `CC(C)(C)c1ccn(C[C@@]23CNCC[C@]2(c2ccc(Cl)c(Cl)c2)C3)n1` (racemic), the pKi in series [1] was 9.60; in series [2], 7.30; in series [3], 8.20.

For `Cc1ccnn1CC12CNCC[C@]1(c1ccc(Cl)c(Cl)c1)C2` (stereo in doubt; 16), the pKi in series [1] is 7.70; in series [2], 6.50; in [3] it was 7.00.

As to `Cc1ccn(CC23CNCC[C@]2(c2ccc(Cl)c(Cl)c2)C3)n1` (single isomer, unassigned; enantiomer 1), the pKi in series [1] is 7.70; in [2], 6.00; in [3] it was 6.50.

As for `Clc1ccc([C@]23CCNC[C@@]2(Cn2cncn2)C3)cc1Cl` (racemic), the pKi is 8.40 in series [1], 7.00 in [2] and 6.70 in series [3].

Consider `Cc1ccn(CC23CNCC[C@]2(c2ccc(Cl)c(Cl)c2)C3)n1` (stereo in doubt), for which the figures for the pKi in series [1], in [2] and in [3] were 9.60, 8.50 and 7.80, respectively. Also, the pIC50 at Cytochrome P450 2C19, against Cytochrome P450 1A2, against Cytochrome P450 2D6, against Cytochrome P450 3A4 and against Cytochrome P450 2C9 was less than 5.00 throughout.

Turning to `Clc1ccc([C@]23CCNCC2(Cn2ccc4ccccc42)C3)cc1Cl` (stereo not given in full), the figures for the pKi in series [1], in series [2] and in series [3] were 8.90, 7.20 and 7.70, respectively.

Consider `FC(F)(F)c1ccnn1C[C@@]12CNCC[C@]1(c1ccc(Cl)c(Cl)c1)C2` (racemic), for which the pKi in series [1] is 8.70; in series [2] it was 8.00; in [3], 8.80.

As to `CC(C)c1nnnn1C[C@@]12CNCC[C@]1(c1ccc(Cl)c(Cl)c1)C2` (racemic), the pKi in [1] was 7.20; in series [2], 6.40; in series [3], 7.20.

Regarding `Cc1ncoc1C[C@@]12CNCC[C@]1(c1ccc(Cl)c(Cl)c1)C2` (racemic), the pKi was 8.50 in [1], 7.60 in series [2] and 7.90 in series [3].

As to `Cc1cc(C(F)(F)F)n(C[C@@]23CNCC[C@]2(c2ccc(Cl)c(Cl)c2)C3)n1` (racemic), the pKi in series [1] is 9.10; in series [2] it was 8.00; in series [3], 8.90.

In the case of `Cc1ccc(C)n1C[C@@]12CNCC[C@]1(c1ccc(Cl)c(Cl)c1)C2` (racemic), the pKi in [1] is 8.60; in series [2], 7.70; in series [3], 7.70.

As to `N#Cc1ccn(C[C@@]23CNCC[C@]2(c2ccc(Cl)c(Cl)c2)C3)n1` (racemic), the pKi in series [1] was 9.00; in series [2], 7.60; in [3], 7.60.

In the case of `Cc1noc([C@@]23CNCC[C@]2(c2ccc(Cl)c(Cl)c2)C3)n1` (racemic), the pKi in [1] is 8.10; in series [2], 7.50; in series [3], 9.10.

In the case of `Cc1cc(C(F)(F)F)nn1C[C@@]12CNCC[C@]1(c1ccc(Cl)c(Cl)c1)C2` (racemic), the pKi in series [1] is 9.00; in [2], 7.60; in series [3], 8.70.

Source of the values: ChEMBL document CHEMBL1817647, “1-Heteroaryl-6-(3,4-dichlorophenyl)-3-azabicyclo[4.1.0]heptane: further insights into a class of triple re-uptake inhibitors” (Bioorg Med Chem, 2011).
